# Test results from US10954232B2, “Pyrazole derivative as ALK5 inhibitor and uses thereof” (HANMI PHARMACEUTICAL CO., LTD., priority 2016, dated 2021).
# Target: T1, ALK5 kinase (Homo sapiens, UniProt P36897)
# T1 construct: GST; purchased Thermo Fisher Scientific Solutions
# T1 sequence (P36897 34-503): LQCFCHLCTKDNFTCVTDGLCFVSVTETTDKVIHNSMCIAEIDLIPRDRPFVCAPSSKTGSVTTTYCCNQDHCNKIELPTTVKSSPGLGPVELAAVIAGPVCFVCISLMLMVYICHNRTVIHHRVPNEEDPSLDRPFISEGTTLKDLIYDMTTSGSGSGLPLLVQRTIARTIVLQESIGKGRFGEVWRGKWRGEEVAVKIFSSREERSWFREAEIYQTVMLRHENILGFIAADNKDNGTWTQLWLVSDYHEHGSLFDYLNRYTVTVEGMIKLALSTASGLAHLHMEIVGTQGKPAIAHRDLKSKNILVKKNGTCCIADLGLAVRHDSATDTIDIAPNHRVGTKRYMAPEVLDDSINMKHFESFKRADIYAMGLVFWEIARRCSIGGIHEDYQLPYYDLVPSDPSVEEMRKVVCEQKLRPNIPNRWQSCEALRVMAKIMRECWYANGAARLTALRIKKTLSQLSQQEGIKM
# Assay: Activity inhibition test on ALK5 enzyme (LanthaScreen Eu binding kinase assay)
# Conditions: kinase tracer 178, 60 minutes at room temperature
# Outline: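 TR-FRET tracer-displacement format with final 5 nM ALK5, 2 nM Eu-GST antibody and 10 nM kinase tracer 178. Compound dilution series ran 1 μM–0.0001 μM, incubated 60 min at room temperature with stirring. Fluorescence was read ([…]), and IC50 came from percent inhibition versus control.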
row,Structure (SMILES),IC50
1,"Cc1cccc(-n2nc(C(=O)Nc3ccc(C(F)(F)F)cc3)cc2-c2ccc3nccnc3c2)n1 [Example 180, 1-(6-methylpyridin-2-yl)-5-(quinoxalin-6-yl)-N-(4-(trifluoromethyl)phenyl)-1H-pyrazole-3-carboxyamide]",100 to 1000 nM
2,"Cc1cccc(-n2nc(C(=O)Nc3ccc(F)cc3)cc2-c2ccc3nccnc3c2)n1 [Example 183, N-(4-fluorophenyl)-1-(6-methylpyridin-2-yl)-5-(quinoxalin-6-yl)-1H-pyrazole-3-carboxyamide]",10 to 100 nM
3,"Cc1cccc(-n2nc(C(=O)Nc3cccc(F)c3)cc2-c2ccc3nccnc3c2)n1 [Example 184, N-(3-fluorophenyl)-1-(6-methylpyridin-2-yl)-5-(quinoxalin-6-yl)-1H-pyrazole-3-carboxyamide]",10 to 100 nM
4,"Cc1cccc(-n2nc(C(=O)Nc3ccccc3F)cc2-c2ccc3nccnc3c2)n1 [Example 185, N-(2-fluorophenyl)-1-(6-methylpyridin-2-yl)-5-(quinoxalin-6-yl)-1H-pyrazole-3-carboxyamide]",< 100 nM
5,"Cc1cccc(-n2nc(C(=O)Nc3ccc(F)c(F)c3)cc2-c2ccc3nccnc3c2)n1 [Example 186, N-(3,4-difluorophenyl)-1-(6-methylpyridin-2-yl)-5-(quinoxalin-6-yl)-1H-pyrazole-3-carboxyamide]",10 to 100 nM
6,"Cc1cccc(-n2nc(C(=O)Nc3ccc(F)cc3F)cc2-c2ccc3nccnc3c2)n1 [Example 187, N-(2,4-difluorophenyl)-1-(6-methylpyridin-2-yl)-5-(quinoxalin-6-yl)-1H-pyrazole-3-carboxyamide]",10 to 100 nM
7,"Cc1cccc(-n2nc(C(=O)Nc3ccc(Cl)cc3)cc2-c2ccc3nccnc3c2)n1 [Example 189, N-(4-chlorophenyl)-1-(6-methylpyridin-2-yl)-5-(quinoxalin-6-yl)-1H-pyrazole-3-carboxyamide]",10 to 100 nM
8,"Cc1cccc(-n2nc(C(=O)Nc3ccccc3Cl)cc2-c2ccc3nccnc3c2)n1 [Example 190, N-(2-chlorophenyl)-1-(6-methylpyridin-2-yl)-5-(quinoxalin-6-yl)-1H-pyrazole-3-carboxyamide]",100 to 1000 nM
9,"Cc1cccc(-n2nc(C(=O)Nc3ccc(Br)cc3)cc2-c2ccc3nccnc3c2)n1 [Example 191, N-(4-bromophenyl)-1-(6-methylpyridin-2-yl)-5-(quinoxalin-6-yl)-1H-pyrazole-3-carboxyamide]",10 to 100 nM
10,"COc1ccc(NC(=O)c2cc(-c3ccc4nccnc4c3)n(-c3cccc(C)n3)n2)cn1 [Example 192, N-(6-methoxypyridin-3-yl)-1-(6-methylpyridin-2-yl)-5-(quinoxalin-6-yl)-1H-pyrazole-3-carboxyamide]",10 to 100 nM
11,"Cc1cccc(-n2nc(C(=O)NCc3ccccc3F)cc2-c2ccc3nccnc3c2)n1 [Example 198, N-(2-fluorobenzyl)-1-(6-methylpyridin-2-yl)-5-(quinoxalin-6-yl)-1H-pyrazole-3-carboxyamide]",< 100 nM
12,"Cc1cccc(-n2nc(C(=O)NCc3cccc(Cl)c3)cc2-c2ccc3nccnc3c2)n1 [Example 200, N-(3-chlorobenzyl)-1-(6-methylpyridin-2-yl)-5-(quinoxalin-6-yl)-1H-pyrazole-3-carboxyamide]",10 to 100 nM
13,"COc1ccc(NC(=O)c2cc(-c3ccc4nccnc4c3)n(-c3cc(Cl)ccc3F)n2)cc1 [Example 203, 1-(5-chloro-2-fluorophenyl)-N-(4-methoxyphenyl)-5-(quinoxalin-6-yl)-1H-pyrazole-3-carboxyamide]",> 100 nM

# Next, values leading:
row,IC50,Structure (SMILES)
1,~100 nM,"Cc1cccc(-n2nc(C(=O)Nc3cccc(C(F)(F)F)c3)cc2-c2ccc3nccnc3c2)n1 [Example 181, 1-(6-methylpyridin-2-yl)-5-(quinoxalin-6-yl)-N-(3-(trifluoromethyl)phenyl)-1H-pyrazole-3-carboxyamide]"
2,< 100 nM,"CNC(=O)c1ccc(NC(=O)c2cc(-c3ccc4nccnc4c3)n(-c3cccc(C)n3)n2)cc1 [Example 182, N-(4-(methylcarbamoyl)phenyl)-1-(6-methylpyridin-2-yl)-5-(quinoxalin-6-yl)-1H-pyrazole-3-carboxyamide]"
3,~100 nM,"COc1ccc(CNC(=O)c2cc(-c3ccc4nccnc4c3)n(-c3cccc(C)n3)n2)cc1 [Example 193, N-(4-methoxybenzyl)-1-(6-methylpyridin-2-yl)-5-(quinoxalin-6-yl)-1H-pyrazole-3-carboxyamide]"
4,> 100 nM,"Cc1cccc(-n2nc(C(=O)NCc3ccc(C#N)cc3)cc2-c2ccc3nccnc3c2)n1 [Example 194, N-(4-cyanobenzyl)-1-(6-methylpyridin-2-yl)-5-(quinoxalin-6-yl)-1H-pyrazole-3-carboxyamide]"
5,10 to 100 nM,"CC(=O)c1cccc(CNC(=O)c2cc(-c3ccc4nccnc4c3)n(-c3cccc(C)n3)n2)c1 [Example 195, N-(3-acetylbenzyl)-1-(6-methylpyridin-2-yl)-5-(quinoxalin-6-yl)-1H-pyrazole-3-carboxyamide]"
6,10 to 100 nM,"Cc1cccc(-n2nc(C(=O)NCc3cccc(F)c3)cc2-c2ccc3nccnc3c2)n1 [Example 197, N-(3-fluorobenzyl)-1-(6-methylpyridin-2-yl)-5-(quinoxalin-6-yl)-1H-pyrazole-3-carboxyamide]"
7,> 100 nM,"Cc1cccc(-n2nc(C(=O)NCc3ccc(Cl)cc3)cc2-c2ccc3nccnc3c2)n1 [Example 199, N-(4-chlorobenzyl)-1-(6-methylpyridin-2-yl)-5-(quinoxalin-6-yl)-1H-pyrazole-3-carboxyamide]"
8,10 to 100 nM,"Cc1cccc(-n2nc(C(=O)NCc3ccccc3Cl)cc2-c2ccc3nccnc3c2)n1 [Example 201, N-(2-chlorobenzyl)-1-(6-methylpyridin-2-yl)-5-(quinoxalin-6-yl)-1H-pyrazole-3-carboxyamide]"
9,> 1000 nM,"Cc1cccc(-n2nc(C(=O)Nc3ccccc3F)cc2-c2ccc3nccnc3c2)c1 [Example 202, N-(2-fluorophenyl)-5-(quinoxalin-6-yl)-1-(m-tolyl)-1H-pyrazole-3-carboxyamide]"
10,~100 nM,"CN(C)c1ccc(NC(=O)c2cc(-c3ccc4nccnc4c3)n(-c3cc(Cl)ccc3F)n2)cc1 [Example 204, 1-(5-chloro-2-fluorophenyl)-N-(4-(dimethylamino)phenyl)-5-(quinoxalin-6-yl)-1H-pyrazole-3-carboxyamide]"
11,> 100 nM,COc1ccc(NC(=O)c2cc(-c3ccc4nccnc4c3)n(-c3cccc(C(F)(F)F)n3)n2)cc1 [Example 205]
12,> 100 nM,CN(C)c1ccc(NC(=O)c2cc(-c3ccc4nccnc4c3)n(-c3cccc(C(F)(F)F)n3)n2)cc1 [Example 206]
13,10 to 100 nM,"COc1ccc(NC(=O)c2cc(-c3ccc4nccnc4c3)n(-c3cccc(Br)n3)n2)cc1 [Example 207, 1-(6-bromopyridin-2-yl)-N-(4-methoxyphenyl)-5-(quinoxalin-6-yl)-1H-pyrazole-3-carboxyamide]"
14,10 to 100 nM,"CN(C)c1ccc(NC(=O)c2cc(-c3ccc4nccnc4c3)n(-c3cccc(Br)n3)n2)cc1 [Example 208, 1-(6-bromopyridin-2-yl)-N-(4-(dimethylamino)phenyl)-5-(quinoxalin-6-yl)-1H-pyrazole-3-carboxyamide]"
15,> 100 nM,"Cc1cccc(-n2nc(C(=O)Nc3ccccc3F)cc2-c2ccnc3ccccc23)n1 [Example 209, N-(2-fluorophenyl)-1-(6-methylpyridin-2-yl)-5-(quinolin-4-yl)-1H-pyrazole-3-carboxyamide]"
